PMC4762250, “Novel cis-selective and non-epimerisable C3 hydroxy azapodophyllotoxins targeting microtubules in cancer cells” (European Journal of Medicinal Chemistry, 2016)
Entries after “also recorded” stand apart in the source; their conditions may differ. Read-outs that look alike come from different tables or passages of the source.

What was measured:
[1] = test system: human breast cancer cell line MCF-7; test: Oncotest propidium iodide monolayer cell proliferation assay, MCF-7; assay type: cell-based; settings: mean absolute IC50, 96 h treatment, propidium iodide endpoint, triplicate, read-out: MCF-7 IC50
Procedure: (§1) The anticancer activity of compounds (8a-q) was evaluated using the Oncotest monolayer assay in the human prostate cancer cell line 22Rv1 and the human breast cancer cell line MCF-7, as an outsourced service. […] Antitumour activity was assessed after four days of treatment with the compounds using a propidium iodide based monolayer assay. Potency is expressed as absolute IC50 values, calculated by non-linear regression analysis following testing in triplicate. The seventeen inhibitors were tested at 10 concentrations in half-log increments up to 100 μM in triplicate.
(§2) A modified propidium iodide (PI) based monolayer assay was used to assess the anti-cancer activity of the compounds. Briefly, cells were harvested from exponential phase cultures, counted and plated in 96-well flat-bottom microtiter plates at a cell density of 8.000–12.000 cells/well. After a 24 h recovery period to allow the cells to resume exponential growth, 10 μl of culture medium (six control wells/plate) or culture medium with test compound were added. The compounds were applied in half-log increments at 10 concentrations in triplicate. After a total treatment period of 96 h, cells were washed with 200 μl PBS to remove dead cells and debris. Then, 200 μl of a solution containing 7 μg/mL propidium iodide (PI) was added. After an incubation period of 1–2 h at room temperature, fluorescence (FU) was measured using the EnSpire Multimode Plate Reader (excitation λ = 530 nm, emission λ = 620 nm) to quantify the amount of attached viable cells. IC50 values were calculated by 4-parameter non-linear curve fit using Oncotest Warehouse Software. For calculation of mean IC50 values the geometric mean was used.

[2] = test system: human prostate cancer cell line 22Rv1; test: Oncotest propidium iodide monolayer cell proliferation assay, 22Rv1; assay type: cell-based; settings: mean absolute IC50, 96 h treatment, propidium iodide endpoint, triplicate
Procedure: as §1, §2

[3] = test system: MCF-7 and 22Rv1; test: Oncotest monolayer assay, results stated over both cell lines; assay type: cell-based, human; settings: for IC50: Homo sapiens; for antiproliferative activity (in words): MCF-7 and 22Rv1
Procedure: as §1, §2

[4] = geometric mean over MCF-7 and 22Rv1, read-out: Mean IC50 values

| IC50 ([1]; Homo sapiens, MCF7, 96 h) [µM] | IC50 [1] [µM] | IC50 ([2]; Homo sapiens, 22Rv1, 96 h) [µM] | IC50 [2] [µM] | IC50 [3, 4] [µM] | IC50 ([3]; range or bound over both cell lines MCF-7 and 22Rv1, read-out: IC50 values in the range) [µM] | Compound | antiproliferative activity (in words) [3] |
| --- | --- | --- | --- | --- | --- | --- | --- |
| 7.3 | 7.25 | 4 | 4 | < 10 |  | COc1cc([C@@H]2c3c(c4cccnc4c4ncccc34)N[C@@]3(O)COC(=O)[C@H]23)cc2c1OCO2 (mixture of isomers) [Compound 8p, (9aS, 12aR, 13R) and (9aR, 12aS, 13S) 9a-hydroxy-13-((5-methoxy-3,4-methylenedioxy)phenyl)-9a,10,12a,13-tetrahydrofuro[3,4-b]pyrido[3,2-f][1,10]phenanthrolin-12(9H)-one] |  |
| 0.424 |  | 0.239 |  |  |  | O=C1OC[C@]2(O)Nc3c(c4cccnc4c4ncccc34)[C@@H](c3ccc(OC(F)(F)F)cc3)[C@@H]12 (mixture of isomers) [Compound 8d, (9aS, 12aR, 13R) and (9aR, 12aS, 13S) 9a-hydroxy-13-(4-(trifluoromethoxy)phenyl)-9a,10,12a,13-tetrahydrofuro[3,4-b]pyrido[3,2-f][1,10]phenanthrolin-12(9H)-one] |  |
| 0.589 |  | 0.311 |  | < 0.5 |  | O=C1OC[C@]2(O)Nc3c(c4cccnc4c4ncccc34)[C@@H](c3cccc(S(F)(F)(F)(F)F)c3)[C@@H]12 (mixture of isomers) [Compound 8g, (9aS, 12aR, 13R) and (9aR, 12aS, 13S) 9a-hydroxy-13-(3-(pentafluorosulfanyl)phenyl)-9a,10,12a,13-tetrahydrofuro[3,4-b]pyrido[3,2-f][1,10]phenanthrolin-12(9H)-one] | more active than etoposide in both cell lines; also recorded: submicromolar activity |
| 0.475 |  | 0.242 |  | < 0.5 |  | Cc1cc(OC(F)(F)F)cc([C@@H]2c3c(c4cccnc4c4ncccc34)N[C@@]3(O)COC(=O)[C@H]23)c1 (mixture of isomers) [Compound 8h, (9aS, 12aR, 13R) and (9aR, 12aS, 13S) 9a-hydroxy-13-(3-methyl-5-trifluoromethoxyphenyl)-9a,10,12a,13-tetrahydrofuro[3,4-b]pyrido[3,2-f][1,10] phenanthrolin-12(9H)-one] | more active than etoposide in both cell lines |
| 0.857 |  | 0.59 |  | 0.5 to 1 |  | O=C1OC[C@]2(O)Nc3c(c4cccnc4c4ncccc34)[C@@H](c3ccc(S(F)(F)(F)(F)F)cc3)[C@@H]12 (mixture of isomers) [Compound 8n, (9aS, 12aR, 13R) and (9aR, 12aS, 13S) 9a-hydroxy-13-(4-(pentafluorosulfanyl)phenyl)-9a,10,12a,13-tetrahydrofuro[3,4-b]pyrido[3,2-f][1,10] phenanthrolin-12(9H)-one] | submicromolar activity |
| 0.125 |  | 0.082 |  |  | 0.08 to 0.13 | COc1cc([C@@H]2c3cc4c(cc3[C@@H](O[C@@H]3O[C@@H]5CO[C@@H](c6cccs6)O[C@H]5[C@H](O)[C@H]3O)[C@H]3COC(=O)[C@H]23)OCO4)cc(OC)c1O [Teniposide, reference compound] |  |
| 0.466 |  | 0.257 |  |  |  | O=C1OC[C@]2(O)Nc3c(c4cccnc4c4ncccc34)[C@@H](c3cccc(OC(F)(F)F)c3)[C@@H]12 (mixture of isomers) [Compound 8c, (9aS, 12aR, 13R) and (9aR, 12aS, 13S) 9a-hydroxy-13-(3-(trifluoromethoxy)phenyl)-9a,10,12a,13-tetrahydrofuro[3,4-b]pyrido[3,2-f][1,10]phenanthrolin-12(9H)-one] |  |
| 0.355 |  | 0.295 |  | < 0.5 |  | CCOc1ccc([C@@H]2c3c(c4cccnc4c4ncccc34)N[C@@]3(O)COC(=O)[C@H]23)cc1C(F)(F)F (mixture of isomers) [Compound 8k, (9aS, 12aR, 13R) and (9aR, 12aS, 13S) 13-(4-ethoxy-3-(trifluoromethyl)phenyl)-9a-hydroxy-9a,10,12a,13-tetrahydrofuro[3,4-b]pyrido[3,2-f][1,10] phenanthrolin-12(9H)-one] | more active than etoposide in both cell lines |
| 0.91 |  | 0.52 |  | 0.5 to 1 |  | O=C1OC[C@]2(O)Nc3c(c4cccnc4c4ncccc34)[C@@H](c3ccc4c(c3)OC(F)(F)O4)[C@@H]12 (mixture of isomers) [Compound 8q, (9aS, 12aR, 13R) and (9aR, 12aS, 13S) 13-((3,4-difluoromethylenedioxy)phenyl)-9a-hydroxy-9a,10,12a,13-tetrahydrofuro[3,4-b]pyrido[3,2-f][1,10]phenanthrolin-12(9H)-one] | submicromolar activity |
| 0.825 |  | 0.51 |  | 0.5 to 1 |  | O=C1OC[C@]2(O)Nc3c(c4cccnc4c4ncccc34)[C@@H](c3cccc(C(F)(F)F)c3)[C@@H]12 (mixture of isomers) [Compound 8f, (9aS, 12aR, 13R) and (9aR, 12aS, 13S) 9a-hydroxy-13-(3-(trifluoromethyl)phenyl)-9a,10,12a,13-tetrahydrofuro[3,4-b]pyrido[3,2-f][1,10]phenanthrolin-12(9H)-one] |  |
| 0.901 |  | 0.719 |  | 0.5 to 1 |  | O=C1OC[C@]2(O)Nc3c(c4cccnc4c4ncccc34)[C@@H](c3ccc(OC(F)F)cc3)[C@@H]12 (mixture of isomers) [Compound 8l, (9aS, 12aR, 13R) and (9aR, 12aS, 13S) 13-(4-(difluoromethoxy)phenyl)-9a-hydroxy-9a,10,12a,13-tetrahydrofuro[3,4-b]pyrido[3,2-f][1,10]phenanthrolin-12(9H)-one] |  |
| 0.396 |  | 0.322 |  | < 0.5 |  | COc1cc(OC(F)(F)F)ccc1[C@@H]1c2c(c3cccnc3c3ncccc23)N[C@@]2(O)COC(=O)[C@@H]12 (mixture of isomers) [Compound 8o, (9aS, 12aS, 13S) and (9aR, 12aR, 13R) 9a-hydroxy-13-(2-methoxy-4-(trifluoromethoxy)phenyl)-9a,10,12a,13-tetrahydrofuro[3,4-b]pyrido[3,2-f][1,10]phenanthrolin-12(9H)-one] | more active than etoposide in both cell lines |
| 0.643 |  | 0.38 |  | < 0.5 |  | O=C1OC[C@]2(O)Nc3c(c4cccnc4c4ncccc34)[C@@H](c3cc(C(F)(F)F)cc(C(F)(F)F)c3)[C@@H]12 (mixture of isomers) [Compound 8j, (9aS, 12aR, 13R) and (9aR, 12aS, 13S) 13-(3,5-bis(trifluoromethyl)phenyl)-9a-hydroxy-9a,10,12a,13-tetrahydrofuro[3,4-b]pyrido[3,2-f][1,10] phenanthrolin-12(9H)-one] | submicromolar activity |
| 2.29 |  | 0.894 |  | < 10 |  | O=C1OC[C@]2(O)Nc3c(c4cccnc4c4ncccc34)[C@@H](c3ccc(SC(F)(F)F)cc3)[C@@H]12 (mixture of isomers) [Compound 8i, (9aS, 12aR, 13R) and (9aR, 12aS, 13S) 9a-hydroxy-13-(4-((trifluoromethyl)thio)phenyl)-9a,10,12a,13-tetrahydrofuro[3,4-b]pyrido [3,2-f][1,10]phenanthrolin-12(9H)-one] |  |
| 0.648 |  | 0.855 |  | 0.5 to 1 |  | CSc1ccc([C@@H]2c3c(c4cccnc4c4ncccc34)N[C@@]3(O)COC(=O)[C@H]23)cc1 (mixture of isomers) [Compound 8a, (9aS, 12aR, 13R) and (9aR, 12aS, 13S) 9a-hydroxy-13-(4-(methylthio)phenyl)-9a,10,12a,13-tetrahydrofuro[3,4-b]pyrido[3,2-f][1,10]phenanthrolin-12(9H)-one] |  |
| 3.31 |  | 2.84 |  | < 10 |  | Cc1ccc(OC(F)(F)F)cc1[C@@H]1c2c(c3cccnc3c3ncccc23)N[C@@]2(O)COC(=O)[C@H]12 (mixture of isomers) [Compound 8m, (9aS, 12aR, 13R) and (9aR, 12aS, 13S) 9a-hydroxy-13-(2-methyl-5-(trifluoromethoxy)phenyl)-9a,10,12a,13-tetrahydrofuro[3,4-b]pyrido[3,2-f][1,10]phenanthrolin-12(9H)-one] |  |
